Laboratory results: the CheMixHub viscosity set

Experiment: xn = mol fraction of the nth substance listed

CCCCn1cc[n+](C)c1.F[P-](F)(F)(F)(F)F + O
298.15 K, 101 kPa
Settings	viscosity [mPa·s]
x2 = 0.0518	198
x2 = 0.2146	92.5

C[N+](C)(C)CC(=O)O.[Cl-] + O
viscosity [mPa·s], 101 kPa
Settings	293.15 K	298.15 K	303.15 K	308.15 K	313.15 K	318.15 K
x1 = 0.000448	1.007	0.8948	0.8017	0.7233	0.6568	–
x1 = 0.000896	1.011	0.8992	0.8061	0.7276	0.661	0.6055
x1 = 0.00135	1.016	0.9038	0.8106	0.7321	0.6654	–
x1 = 0.0018	1.02	0.9082	0.815	0.7365	0.6697	0.614
x1 = 0.002247	1.025	0.9126	0.8193	0.7408	0.674	0.6184
x1 = 0.002691	1.029	0.917	0.8237	0.7452	0.6783	0.6227
x1 = 0.003581	1.038	0.9259	0.8324	0.7539	0.687	0.6313
x1 = 0.004484	1.048	0.9348	0.8413	0.7627	0.6956	0.6401
x1 = 0.005363	1.056	0.9435	0.85	0.7712	0.7043	0.6486
x1 = 0.006268	1.066	0.9526	0.859	0.7799	0.713	0.6575
x1 = 0.007163	1.075	0.9616	0.8677	0.789	0.7217	0.6664

C[NH+](C)CCO.O=C([O-])CCCC(=O)O + O
101 kPa, x2 = 0.89
Settings	viscosity [mPa·s]
298 K	19.3
313 K	11.8

[Cl-].[Cs+] + O
310.15 K, 101 kPa
Settings	viscosity [mPa·s]
x1 = 0.000182	0.6996
x1 = 0.000907	0.7002
x1 = 0.001823	0.7061
x1 = 0.002695	0.7089
x1 = 0.003679	0.7129
x1 = 0.005197	0.719
x1 = 0.005988	0.7223

OCCCCCO + O=C1CCCN1
308.15 K, 101 kPa
Settings	viscosity [mPa·s]
x1 = 0.479	21.15
x1 = 0.9392	54.65

CC(O)C(=O)O (stereo unspecified) + O=C(O)[C@@H]1CCCN1
Settings	viscosity [mPa·s]
323.15 K, 100 kPa, x1 = 0.5	997.4

C[NH+](C)CCO.O=C([O-])CCCC(=O)O + O=S1(=O)CCCC1
101 kPa, x1 = 0.27
Settings	viscosity [mPa·s]
303.15 K	132.4
313.15 K	81.7
323.15 K	54.1

OC1CCCC1 + OCCO
viscosity [mPa·s], 100 kPa
Settings	293.15 K	298.15 K	303.15 K	308.15 K	313.15 K	318.15 K
x1 = 0.0096	20.05	16.39	13.54	11.2	9.449	7.776
x1 = 0.0395	19.37	15.85	13.05	10.76	9.1	7.468
x1 = 0.0579	19.05	15.56	12.79	10.56	8.919	7.326
x1 = 0.0879	18.56	15.14	12.41	10.23	8.646	7.096
x1 = 0.1	18.37	14.97	12.3	10.1	8.562	7.014
x1 = 0.1962	17.2	13.96	11.39	9.382	7.926	6.505
x1 = 0.305	16.2	13.09	10.65	8.716	7.366	6.078
x1 = 0.3969	15.4	12.54	10.2	8.282	7.016	5.819
x1 = 0.4993	14.8	12.02	9.751	7.927	6.692	5.617
x1 = 0.5877	14.3	11.69	9.42	7.677	6.437	5.439
x1 = 0.6993	13.9	11.33	8.99	7.319	6.14	5.219
x1 = 0.797	13.56	11.01	8.69	7.01	5.861	5.05
x1 = 0.8977	13.15	10.62	8.345	6.737	5.625	4.89

Clc1ccccc1 + OCCOCCOCCO
viscosity [mPa·s], 101 kPa
Settings	298.15 K	308.15 K
x2 = 0.0473	0.941	0.808
x2 = 0.149	1.491	1.172
x2 = 0.2493	2.307	1.682
x2 = 0.3495	3.504	2.4
x2 = 0.439	5.014	3.283
x2 = 0.4734	5.733	3.699
x2 = 0.5509	7.695	4.829
x2 = 0.6512	11.09	6.787
x2 = 0.7493	15.58	9.422
x2 = 0.8483	21.58	13.05
x2 = 0.9428	28.99	17.74
